According to the PolyMetriX glass transition set:
± gives the standard deviation of the reports.

glass transition temperature | Compound
259.00 °C | *c1ccc(Oc2ccc(C(=O)c3ccc(Oc4ccc(-c5nc(-c6ccccc6)[nH]c5*)cc4)cc3)cc2)cc1 (repeat unit)
325.00 °C | *c1ccc(-c2ccc(N3C(=O)c4ccc(Oc5ccc6c(c5)C(=O)N(*)C6=O)cc4C3=O)cc2C)c(C)c1 (repeat unit)
207.00 °C | *Oc1ccc(S(=O)(=O)c2ccc(Oc3ccc(C(=O)c4ccc(-c5ccc(C(=O)c6ccc(*)cc6)cc5)cc4)cc3)cc2)cc1 (repeat unit)
276.00 °C | *c1c(C)cc(-c2cc(C)c(N3C(=O)c4cccc(Oc5c(C)cc(Cc6cc(C)c(Oc7cccc8c7C(=O)N(*)C8=O)c(C)c6)cc5C)c4C3=O)c(C)c2)cc1C (repeat unit)
395.00 °C | *c1ccc(-c2nc3cc4nc(-c5ccccc5)c(*)nc4cc3nc2-c2ccccc2)cc1 (repeat unit)
61.00 °C | *Oc1ccc(CC(NC(=O)CCc2ccc(OC(=O)CCCCC(*)=O)cc2)C(=O)OCC)cc1 (repeat unit)
200.00 °C | *CCCCCC(=O)Nc1ccc(NC(=O)CCCCCN2C(=O)c3ccc(C(=O)c4ccc5c(c4)C(=O)N(*)C5=O)cc3C2=O)cc1 (repeat unit)
208.1 °C | *Oc1ccc(NC(=O)c2cc(C(=O)Nc3ccc(*)cc3)c(C(=O)OCC)cc2C(=O)OCC)cc1 (repeat unit)
140.00 °C | *c1ccc(OC(=O)CCCCCCCCCCCCCCCCCCCCC(=O)Oc2ccc(N3C(=O)c4ccc(-c5ccc6c(c5)C(=O)N(*)C6=O)cc4C3=O)cc2)cc1 (repeat unit)
195.00 °C | *CCCC(=O)Nc1ccc(Cc2ccc(NC(=O)CCCN3C(=O)c4ccc(C(=O)c5ccc6c(c5)C(=O)N(*)C6=O)cc4C3=O)cc2)cc1 (repeat unit)
123.50 °C | *CC(*)c1ccc(N(c2ccccc2)c2ccccc2)cc1 (repeat unit)
40.00 °C | *CC(*)(C)C(=O)OCCCCCC(=O)Oc1ccc(OC(=O)c2ccc(OC)cc2)cc1 (repeat unit)
132.00 °C | *Oc1ccc(-c2ccc(OC(=O)c3ccc(C(*)=O)cc3)cc2)cc1-c1ccccc1 (repeat unit)
203.00 °C | *Oc1ccc(S(=O)(=O)c2ccc(Oc3ccc(C(=O)c4cc(I)cc(C(=O)c5ccc(*)cc5)c4)cc3)cc2)cc1 (repeat unit)
61.00 °C | *OC(COC(=O)c1ccc(-c2cc(CCCCCCCC)c(-c3ccc(C(*)=O)c(F)c3F)cc2CCCCCCCC)c(F)c1F)COc1ccc(/N=N/c2ccc(C#N)cc2)cc1 (repeat unit)
225.00 °C | *Oc1ccc(S(=O)(=O)c2ccc(*)cc2)cc1 (repeat unit)
257.00 °C | *c1ccc(-c2ccc(N3C(=O)c4ccc(Oc5ccc(Sc6ccc(Oc7ccc8c(c7)C(=O)N(*)C8=O)cc6)cc5)cc4C3=O)cc2)cc1 (repeat unit)
280.00 °C | *c1ccc2c(c1)C(=O)N(c1cccc(C(=O)Nc3ccc(Oc4ccc(-c5ccc(Oc6ccc(NC(=O)c7cccc(N8C(=O)c9ccc(C(*)(C(F)(F)F)C(F)(F)F)cc9C8=O)c7)cc6)cc5)cc4)cc3)c1)C2=O (repeat unit)
145.00 °C | *CCCCCCCCN1C(=O)c2ccc(Oc3ccc4c(c3)C(=O)N(*)C4=O)cc2C1=O (repeat unit)

glass transition temperature | Compound
278.00 °C | *C(=O)Nc1c(C)cc(Cc2cc(C)c(NC(=O)c3ccc4c(c3)C(=O)N(c3ccc(/N=N/c5ccc(OC(F)(F)F)cc5)c(N5C(=O)c6ccc(*)cc6C5=O)c3)C4=O)c(C)c2)cc1C (repeat unit)
420.00 °C | *c1cccc(-c2nc3ccc(-c4ccc5nc(*)[nH]c5c4)cc3[nH]2)c1 (repeat unit)
175.00 °C | *Oc1ccc(C(c2ccc(Oc3ccc(C(=O)c4ccc(*)cc4)cc3)cc2)(C(F)(F)F)C(F)(F)F)cc1 (repeat unit)
140.00 °C | *Oc1ccc(OC(=O)c2ccc(C(*)=O)cc2Sc2ccc(Cl)cc2)cc1 (repeat unit)
276.00 °C | *c1cc(/C=N/C(=S)Nc2ccc(-n3c(=O)c4cc5c(=O)n(*)c(=O)c5cc4c3=O)cc2)ccc1Cl (repeat unit)
215.00 °C | *c1ccc(Oc2cccc(Oc3ccc(N4C(=O)C5CCC(C6CCC7C(=O)N(*)C(=O)C7C6)CC5C4=O)cc3)c2)cc1 (repeat unit)
341.00 °C | *c1cccc(N2C(=O)c3ccc(-c4cccc5c4C(=O)N(*)C5=O)cc3C2=O)c1 (repeat unit)
305.00 °C | *C1C2CC(C(=O)OCCc3ccc(N(c4ccccc4)c4cccc(C)c4)cc3)C(C2)C1* (repeat unit)
221.00 °C | *CC(OC)C1C(=O)N(c2ccc(N(C)C)cc2)C(=O)C1* (repeat unit)
123.00 °C | *CC(*)(C)C(=O)OCCN(C)c1ccc(/N=N/c2ccc(S(=O)(=O)Nc3cc(C)on3)cc2)cc1 (repeat unit)
180.00 °C | *Oc1cccc2ccc(Oc3ccc(NC(=O)c4ccc(Oc5ccccc5Oc5ccc(C(=O)Nc6ccc(*)cc6)cc5)cc4)cc3)cc12 (repeat unit)
344.00 °C | *c1ccc2c(c1)C(=O)N(c1ccc(N3C(=O)c4ccc(-c5c(-c6ccccc6)c(-c6ccccc6)c(-c6ccc(Sc7ccc(-c8c(-c9ccccc9)c(-c9ccccc9)c(*)c(-c9ccccc9)c8-c8ccccc8)cc7)cc6)c(-c6ccccc6)c5-c5ccccc5)cc4C3=O)cc1)C2=O (repeat unit)
145.00 °C | *Oc1ccc(Nc2ccc(S(=O)(=O)c3ccc(Nc4ccc(Oc5ccc(C(C)(C)c6ccc(*)cc6)cc5)cc4)cc3)cc2)cc1 (repeat unit)
-40.50 °C | *CC(*)(CC(=O)OCCOCCOC)C(=O)OCCOCCOC (repeat unit)
267.50 °C | *Nc1cc(NC(=O)c2ccc(C(*)=O)cc2)cc(-c2nc3ccccc3[nH]2)c1 (repeat unit)
316.00 °C | *c1ccc(Oc2cc3ccccc3cc2Oc2ccc(-n3c(=O)c4cc5c(=O)n(*)c(=O)c5cc4c3=O)cc2)cc1 (repeat unit)
7.00 °C | *CCCCOC(=O)NCCCCNC(=O)O* (repeat unit)
30.00 °C | *CC(*)C(=O)OCCCCOc1ccc(-c2ccc(C#N)cc2)cc1 (repeat unit)
75.00 °C | *CC(*)(F)C(=O)OCC(F)(F)C(F)(F)C(F)(F)F (repeat unit)

Compound | glass transition temperature
*CC(*)C(=O)OCCCCCCCC (repeat unit) [Poly(n-octyl acrylate) ] | -65 ± 0.6 °C
*CCCC(=O)N* (repeat unit) | 62.80 °C
*CCCCCCCCCCC(=O)O* (repeat unit) | -46.0 °C
*C(C)C(*)C(=O)OCCCC (repeat unit) | 90.00 °C
*OP(=O)(Oc1ccc(C(C)(C)c2ccc(*)cc2)cc1)Oc1c(Cl)cccc1Cl (repeat unit) | 96.00 °C
*Oc1c(Cl)cc(*)cc1Br (repeat unit) | 188.50 °C
*O[Si](C)(C)CCCCCC[Si](*)(C)C (repeat unit) | -90.00 °C
*C/C=C/C(C)S(*)(=O)=O (repeat unit) | 71.00 °C
*CC(C)CO* (repeat unit) | -55.00 °C
